One may read the IC50 as the concentration at which inhibition is half-maximal.

Each structure is given as a SMILES string. Read-outs that look alike come from different tables or passages of the source. Bounds are passed on as bounds.

The subject of one assay is EGFR^T790M. The settings on record: read-out: IC50 EGFR^T790M; ref Aboelez et al.; cited from earlier work.
Assay [1] deals with tubulin polymerization. The settings on record: read-out: antitubulin polymerization IC50; ref Aboelez et al.; cited from earlier work.
A further assay has as its system EGFR^WT. The settings on record: read-out: IC50 EGFR^WT; ref Aboelez et al.; cited from earlier work.
A further assay concerns A549 cell line. Briefly: MTT cytotoxicity test, A549 cell line. Format: cell-based. The settings on record: Homo sapiens, A549, read-out: IC50 (μM) A549. (Formazan colour is commonly taken as a measure of viable cells.)
In another assay the test system is MCF-7 cell line. Briefly: MTT cytotoxicity test, MCF-7 cell line. Type of assay: cell-based. The settings on record: Homo sapiens, MCF7, read-out: IC50 (μM) MCF-7.
The next assay deals with NIH3T3 cells. Briefly: MTT cytotoxicity test, NIH3T3 cell line. Format: cell-based. As to conditions: Mus musculus, NIH3T3, read-out: IC50 (μM) NIH3T3.
A further assay concerns the target T1, COX-2 enzyme (Homo sapiens, UniProt P35354).
T1 sequence (P35354 18-604): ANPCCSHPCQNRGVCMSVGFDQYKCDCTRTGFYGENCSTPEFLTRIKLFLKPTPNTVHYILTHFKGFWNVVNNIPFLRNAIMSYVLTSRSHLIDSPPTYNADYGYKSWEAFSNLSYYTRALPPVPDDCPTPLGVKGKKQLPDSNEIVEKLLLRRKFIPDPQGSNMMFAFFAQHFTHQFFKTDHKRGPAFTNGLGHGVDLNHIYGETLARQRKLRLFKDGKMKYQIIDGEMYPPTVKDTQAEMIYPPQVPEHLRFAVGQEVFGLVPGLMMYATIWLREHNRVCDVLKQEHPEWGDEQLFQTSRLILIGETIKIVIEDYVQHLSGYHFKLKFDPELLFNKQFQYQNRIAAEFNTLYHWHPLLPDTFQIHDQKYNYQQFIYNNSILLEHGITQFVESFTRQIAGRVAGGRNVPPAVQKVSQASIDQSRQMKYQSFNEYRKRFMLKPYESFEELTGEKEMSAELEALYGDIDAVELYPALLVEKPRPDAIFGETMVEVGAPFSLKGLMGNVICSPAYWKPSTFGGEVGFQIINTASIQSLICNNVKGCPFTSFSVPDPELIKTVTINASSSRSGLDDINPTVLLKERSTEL
Briefly: biochemical.

Assay [2] relates to carbonic anhydrase IX (CA IX). As to conditions: ref Fadaly et al.; cited from earlier work.
In assay [3] the test system is carbonic anhydrase XII (CA XII). The settings on record: ref Fadaly et al.; cited from earlier work.
In a further assay the target is CA XII. As to conditions: read-out: inhibition constant CA XII; ref Mohamed et al.; cited from earlier work.
Another assay deals with HDAC2. The settings on record: read-out: IC50 HDAC2; ref Mohamed et al.; cited from earlier work.
The subject of assay [4] is tubulin polymerization. The settings on record: read-out: IC50 antitubulin polymerization assay; ref Mohamed et al.; cited from earlier work.
The next assay deals with CA IX. The settings on record: read-out: inhibition constant CA IX; ref Mohamed et al.; cited from earlier work.
A further assay relates to HDAC1. The settings on record: read-out: IC50 HDAC1; ref Mohamed et al.; cited from earlier work.
Another assay deals with CDK6. The settings on record: ref Abdalla et al.; cited from earlier work.
The next assay has as its system CDK12. The settings on record: ref Abdalla et al.; cited from earlier work.
The subject of a further assay is CDK2. The settings on record: ref Abdalla et al.; cited from earlier work.
A further assay deals with topoisomerase II. The settings on record: ref Ewieda et al.; cited from earlier work.
Another assay relates to AKT-1. As to conditions: read-out: IC50 AKT-1; ref Abd El-Mawgoud et al.; cited from earlier work.
A further assay has as its system VEGFR-2. The settings on record: read-out: IC50 VEGFR-2; ref Abd El-Mawgoud et al.; cited from earlier work.

Turning to `CC(=NNC(=O)c1sc2sc(C(=O)NN=C(C)c3ccccc3)c(N)c2c1N)c1ccccc1` [3,4-diamino-N′2,N′5-bis(1-phenylethylidene)thieno[2,3-b]thiophene-2,5-dicarbohydrazide], the IC50 is 0.0246 µM in the assay on EGFR^T790M, 5.1 µM in the assay on tubulin polymerization [1] and 0.0281 µM in the assay on EGFR^WT.
With `O=C(CSc1nnc(NC(=O)c2ccc(Cl)c(Cl)c2)s1)Nc1ccccc1` [3a, 3,4-Dichloro-N-(5-((2-oxo-2-(phenylamino)ethyl)thio)-1,3,4-thiadiazol-2-yl)benzamide], the IC50 was over 100 µM with A549 cell line, over 100 µM in the assay with MCF-7 cell line, over 100 µM with NIH3T3 cells and 2.39 ± 0.104 µM at COX-2 enzyme.
As for `O=C(CSc1nnc(NC(=O)c2ccc(Cl)c(Cl)c2)s1)Nc1ccc(C(F)(F)F)cc1` [3b, 3,4-Dichloro-N-(5-((2-oxo-2-((4-(trifluoromethyl)phenyl)amino)ethyl)thio)-1,3,4-thiadiazol-2-yl)benzamide], the IC50 in the assay on A549 cell line was 46.5 ± 1.45 µM; in the assay with MCF-7 cell line, over 100 µM; in the assay on NIH3T3 cells, 67.1 ± 2.37 µM; against COX-2 enzyme, over 1000 µM.
Turning to `O=C(CSc1nnc(NC(=O)c2ccc(Cl)c(Cl)c2)s1)Nc1ccc(Cl)cc1` [3d, 3,4-Dichloro-N-(5-((2-((4-chlorophenyl)amino)-2-oxoethyl)thio)-1,3,4-thiadiazol-2-yl)benzamide], the IC50 with A549 cell line was over 100 µM; with MCF-7 cell line, over 100 µM; in the assay on NIH3T3 cells, over 100 µM; at COX-2 enzyme, 6.72 ± 0.312 µM.
With `NS(=O)(=O)c1ccc(NC(=O)CSc2nnc(NC(=O)c3ccc(Cl)c(Cl)c3)s2)cc1` [3e, 3,4-Dichloro-N-(5-((2-oxo-2-((4-sulfamoylphenyl)amino)ethyl)thio)-1,3,4-thiadiazol-2-yl)benzamide], the IC50 with A549 cell line is over 100 µM; with MCF-7 cell line, 11 ± 0.402 µM; with NIH3T3 cells, 70.8 ± 2.5 µM; against COX-2 enzyme it was 0.32 ± 0.014 µM.
For `O=C(CSc1nnc(NC(=O)c2ccc(Cl)cc2)s1)Nc1ccccc1` [3f, 4-Chloro-N-(5-((2-oxo-2-(phenylamino)ethyl)thio)-1,3,4-thiadiazol-2-yl)benzamide], the IC50 in the assay on A549 cell line was over 100 µM; in the assay on MCF-7 cell line, over 100 µM; in the assay with NIH3T3 cells, over 100 µM; against COX-2 enzyme, 0.874 ± 0.039 µM.
`O=C(CSc1nnc(NC(=O)c2ccc(Cl)cc2)s1)Nc1ccc(C(F)(F)F)cc1` [3g, 4-Chloro-N-(5-((2-oxo-2-((4-(trifluoromethyl)phenyl)amino)ethyl)thio)-1,3,4-thiadiazol-2-yl)benzamide]: the IC50 with A549 cell line was 21.1 ± 0.996 µM; in the assay with MCF-7 cell line, 27.1 ± 1.26 µM; in the assay with NIH3T3 cells, over 100 µM; at COX-2 enzyme, over 100 µM.
As for `O=C(CSc1nnc(NC(=O)c2ccc(Cl)cc2)s1)Nc1ccc(Cl)cc1` [3i, 4-Chloro-N-(5-((2-((4-chlorophenyl)amino)-2-oxoethyl)thio)-1,3,4-thiadiazol-2-yl)benzamide], the IC50 in the assay with A549 cell line was over 100 µM; in the assay on MCF-7 cell line, 12.1 ± 0.589 µM; in the assay with NIH3T3 cells, 24.9 ± 1.18 µM; at COX-2 enzyme it was 3.78 ± 0.177 µM.
Regarding `O=C(CSc1nnc(NC(=O)c2ccc(F)cc2)s1)Nc1ccccc1` [3k, 4-Fluoro-N-(5-((2-oxo-2-(phenylamino)ethyl)thio)-1,3,4-thiadiazol-2-yl)benzamide], the IC50 in the assay with A549 cell line was 69.1 ± 2.8 µM; in the assay with MCF-7 cell line, over 100 µM; with NIH3T3 cells it was over 100 µM; on COX-2 enzyme it was over 1000 µM.
Take `O=C(CSc1nnc(NC(=O)c2ccc(F)cc2)s1)Nc1ccc(C(F)(F)F)cc1` [3l, 4-Fluoro-N-(5-((2-oxo-2-((4-(trifluoromethyl)phenyl)amino)ethyl)thio)-1,3,4-thiadiazol-2-yl)benzamide]: the IC50 in the assay with A549 cell line was 41.1 ± 1.96 µM; in the assay with MCF-7 cell line, 30.5 ± 1.37 µM; in the assay with NIH3T3 cells it was 46.2 ± 1.82 µM; at COX-2 enzyme (read-out: COX-2 IC50, fluorometric kit, 25 °C) it was 0.974 ± 0.045 µM.
As to `O=C(CSc1nnc(NC(=O)c2ccc(F)cc2)s1)Nc1ccc(Cl)cc1` [3n, 4-Fluoro-N-(5-((2-((4-chlorophenyl)amino)-2-oxoethyl)thio)-1,3,4-thiadiazol-2-yl)benzamide], the IC50 is over 100 µM in the assay with A549 cell line, over 100 µM in the assay with MCF-7 cell line, over 100 µM with NIH3T3 cells and 0.721 ± 0.03 µM at COX-2 enzyme.
Take `COc1ccc(C(=O)Nc2nnc(SCC(=O)Nc3ccccc3)s2)cc1` [3p, 4-Methoxy-N-(5-((2-oxo-2-(phenylamino)ethyl)thio)-1,3,4-thiadiazol-2-yl)benzamide]: the IC50 was over 100 µM with A549 cell line, over 100 µM in the assay on MCF-7 cell line, over 100 µM in the assay with NIH3T3 cells and over 1000 µM against COX-2 enzyme.
Turning to `COc1ccc(C(=O)Nc2nnc(SCC(=O)Nc3ccc(C(F)(F)F)cc3)s2)cc1` [3r, 4-Methoxy-N-(5-((2-oxo-2-((4-(trifluoromethyl)phenyl)amino)ethyl)thio)-1,3,4-thiadiazol-2-yl)benzamide], the IC50 in the assay on A549 cell line was over 100 µM; in the assay on MCF-7 cell line, 43.1 ± 2.06 µM; in the assay on NIH3T3 cells, 47.6 ± 1.77 µM; on COX-2 enzyme, over 100 µM.
Turning to `COc1ccc(C(=O)Nc2nnc(SCC(=O)Nc3ccc(Cl)cc3)s2)cc1` [3t, 4-Methoxy-N-(5-((2-oxo-2-((4-chlorophenyl)amino)ethyl)thio)-1,3,4-thiadiazol-2-yl)benzamide], the IC50 in the assay on A549 cell line, in the assay with MCF-7 cell line, in the assay with NIH3T3 cells and at COX-2 enzyme was over 100 µM in each case.
With `COc1ccc(-c2csc(N3N=C(c4nnn(-c5ccc(S(N)(=O)=O)cc5)c4C)CC3c3ccc(OC)cc3)n2)cc1` (stereo not drawn) [4-(4-(5-(4-methoxyphenyl)-1-(4-(4-methoxyphenyl)thiazol-2-yl)-4,5-dihydro-1H-pyrazol-3-yl)-5-methyl-1H-1,2,3-triazol-1-yl)benzenesulfonamide], the “activity against CA IX” value in assay [2] is 0.025 µM. In addition, in assay [3], the “activity against CA XII” value was 0.031 µM.
In the case of `NS(=O)(=O)c1ccc(NC(=O)COc2ccc(/C=C/C(=O)c3ccc(Br)cc3)cc2)cc1` [(E)-2-(4-(3-(4-bromophenyl)-3-oxoprop-1-en-1-yl)phenoxy)-N-(4-sulfamoylphenyl)acetamide], the Ki is 0.0508 ± 0.00258 µM at CA XII and 0.072 ± 0.00258 µM at CA IX. Also, the IC50 was 0.0663 µM in the assay with HDAC2, 2.56 µM in the assay on tubulin polymerization [4] and 0.134 µM in the assay on HDAC1.
With `Nc1ccccc1C(=O)O` [Anthranilic acid], the “activity against CDK6” value in the assay on CDK6 was 0.48 µM. In addition, the “activity against CDK12” value in the assay on CDK12 was 0.82 µM. Besides, the “activity against CDK2” value in the assay with CDK2 was 0.67 µM.
Consider `Br.CCOC(=O)C1=C(c2ccccc2)N=C2SC=C(c3ccc(C)cc3)N2C1c1ccc(Br)cc1` (stereo not drawn) [Ethyl 5-(4-bromophenyl)-3-(4-methylphenyl)-7-phenyl-5H-thiazolo[3,2-a]pyrimidine-6-carboxylate hydrobromide], for which the activity against topoisomerase in the assay with topoisomerase II is 0.94 µM.
Turning to `Nc1nc2c3c(N)c(-c4nnc(NC(=O)c5ccccc5)s4)sc3ncn2n1` [N-(5-(2,9-diaminothieno[3,2-e]1,3,4-triazolo[1,5-c]pyrimidin-8-yl)-1,3,4-thiadiazol-2-yl)benzamide], the IC50 in the assay with AKT-1 was 0.452 µM; in the assay with VEGFR-2, 0.164 µM.
`COc1cccc2c1C(=O)c1c(O)c3c(c(O)c1C2=O)C[C@@](O)(C(=O)CO)C[C@@H]3O[C@H]1C[C@H](N)[C@H](O)[C@H](C)O1` [doxorubicin, reference compound]: the IC50 in the assay with NIH3T3 cells is over 100 µM.

(Values after paper PMC12756739 (ACS Omega, 2025).)
